The record followed here is US20240254162A1, “CYCLOTHEONELLAZOLEA, AND SYNTHETIC METHOD THEREFOR, AND APPLICATION METHOD THEREOF” (The Second People's Hospital of Shenzhen(Shenzhen Institute …, priority 2022, published 2024).

Common to all, as to assay type: biochemical
Assay [1] has as its target T1, neutrophil elastase (NE) (Homo sapiens, UniProt P08246).
T1 construct: purchased Abcam ab118971
T1 sequence (P08246 30-267): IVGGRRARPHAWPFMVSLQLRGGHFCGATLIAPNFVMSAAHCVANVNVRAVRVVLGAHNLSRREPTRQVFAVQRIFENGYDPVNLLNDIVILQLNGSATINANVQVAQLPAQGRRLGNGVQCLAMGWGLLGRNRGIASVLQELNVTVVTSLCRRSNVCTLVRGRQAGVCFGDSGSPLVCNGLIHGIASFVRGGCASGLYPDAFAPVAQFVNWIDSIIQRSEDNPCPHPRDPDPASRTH
The experiment in a line: Inhibition effect of CA on NE protease enzyme activity (Abcam NE protease detection kit ab118971, fluorescence). As to conditions: incubated at 37° C. for 5 min; Ex/Em=400/505 nm; FIG. 3. On the procedure: • 1. Experimental materials include a NE protease detection kit (ab118971) of an Abcam company and CA. • 2. Experimental methods are as follows. In a black 96-well plate, a blank well group, a negative control well group and a sample well group are set, and a detection system is 100 μL. The blank well group is added with 75 μL of buffer, the negative control well group is added with 50 μL of NE protease and 25 μL of buffer, the sample well group is added with 50 μL of NE protease and 25 μL of CA solution (respectively with concentrations of 0.00001 μM, 0.0001 μM, 0.001 μM, 0.003 μM, 0.01 μM and 0.1 μM), and the three groups are incubated at a temperature of 37° C. for 5 min. Each well is added with 25 μL of substrate, after mixing evenly, fluorescence value of each well is immediately detected at Ex/Em=400/505 nm, every 20 seconds, and a dynamic process within a range of 0-40 min is observed. Two different time points (T1 and T2) are selected within a linear range of the dynamic process to obtain fluorescence values (RFUT1 and RFUT2) corresponding to the time points, a slope of the fluorescence values is calculated, and the slope can be regarded as an enzyme activity of each well. A formula of the slope is slope=(RFUT2−RFUT1)/(T2−T1). […] A half inhibitory concentration (IC50) is calculated through the Origin 2021 software. • 3.

Assay [2] deals with T2, mainprotease (Mpro) of SARS-COV-2 virus (Severe acute respiratory syndrome coronavirus 2, UniProt P0DTD1).
T2 construct: Mainprotease (Mpro) of SARS-COV-2 Virus; purchased BPS Bioscience 78042-2
The experiment in a line: Inhibition effect of CA on Mpro enzyme activity (BPS Bioscience Mpro detection kit 78042-2, fluorescence). As to conditions: incubated at room temperature for 30 min; Ex/Em=360/460 nm; FIG. 2.

Assay [3] deals with T3, transmembrane serine protease 2 (TMPRSS2) (Homo sapiens, UniProt O15393).
T3 construct: purchased BPS Bioscience 78083
The experiment in a line: Inhibition effect of CA on TMPRSS2 enzyme activity (BPS Bioscience TMPRSS2 detection kit 78083, fluorescence). As to conditions: incubated at room temperature for 30 min; Ex/Em=383/455 nm; FIG. 1. On the procedure:
• 1. Experimental materials include a TMPRSS2 detection kit (78083) of a BPS Bioscience company and CA. • 2. Experimental methods are as follows. In a black 96-well plate, a blank well group, a negative control well group and a sample well group are set, and a detection system is 50 microliters (μL). The blank well group is added with 40 μL of buffer, the negative control well group is added with 30 μL of TMPRSS2 protease and 10 μL of buffer, the sample well group is added with 30 μL of TMPRSS2 protease and 10 μL of CA solution (respectively with concentrations of 0.1 micromole per liter abbreviated as μM, 1 μM, 10 μM, 30 μM, 100 μM, 150 μM, and 200 μM), and the three groups are incubated at the room temperature for 30 min. Each well is added with 10 μL of substrate, after mixing evenly, fluorescence value of each well is immediately detected at excitation/emission (Ex/Em)=383/455 nanometers (nm), every 30 seconds, and a dynamic process within a range of 0-40 min is observed. Two different time points (T1 and T2) are selected within a linear range of the dynamic process to obtain fluorescence values (RFUT1 and RFUT2) corresponding to the time points, a slope of the fluorescence values is calculated, and the slope can be regarded as an enzyme activity of each well. […] A half inhibitory concentration (IC50) is calculated through an Origin 2021 software. • 3.

Numbered stars: 1 amine (or outer) side, 2 acyl side, 3 side chain; on linkers, the order of the positions; unused ones are H or OH. Bridge positions count the residues as written; N and C are the ends. Square brackets hold non-standard residues; d marks the D form. Peptide text beside a SMILES is read from it. * marks the point of attachment. X2 = O=C(/C=C/c1csc([C@H](Cc2ccc(O)cc2)N[*:1])n1)[*:2]; X1 = CC[C@H](C)[C@H](N[*:1])C(=O)C(=O)[*:2]; Benzoyl(4-OH) = O=C(c1ccc(O)cc1)*; Cya = N[C@@H](CS(=O)(=O)O)C(=O)O; Nva = CCC[C@H](N)C(=O)O; Dap = NC[C@H](N)C(=O)O

T3 sequence (O15393 whole entry): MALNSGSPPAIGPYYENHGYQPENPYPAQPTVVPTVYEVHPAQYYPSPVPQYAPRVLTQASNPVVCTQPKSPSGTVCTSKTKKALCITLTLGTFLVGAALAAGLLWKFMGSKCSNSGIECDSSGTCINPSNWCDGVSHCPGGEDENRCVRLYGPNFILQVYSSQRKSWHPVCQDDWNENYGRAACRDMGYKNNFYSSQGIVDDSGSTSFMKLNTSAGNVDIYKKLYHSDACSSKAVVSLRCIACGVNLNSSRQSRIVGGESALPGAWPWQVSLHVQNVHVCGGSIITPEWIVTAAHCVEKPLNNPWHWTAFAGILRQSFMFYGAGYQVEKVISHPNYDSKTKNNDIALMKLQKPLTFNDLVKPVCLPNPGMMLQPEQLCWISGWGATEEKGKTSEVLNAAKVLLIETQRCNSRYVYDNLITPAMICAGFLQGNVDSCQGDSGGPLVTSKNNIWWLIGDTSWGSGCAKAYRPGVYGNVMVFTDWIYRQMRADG

As to `CCC[C@@H]1NC(=O)[C@@H](NC(=O)[C@H](C)NC(=O)CNC(=O)c2ccc(O)cc2)CNC(=O)[C@H](CS(=O)(=O)O)NC(=O)/C=C/c2csc(n2)[C@H](Cc2ccc(O)cc2)NC(=O)C(=O)[C@H]([C@@H](C)CC)NC1=O` [CA, CyclotheonellazoleA] ({Benzoyl(4-OH)}-GA[Dap][Nva][X1][X2][Cya]; lactam 3-C), the IC50 in assay [1] came out at 0.001 µM; in assay [2], 159 µM; in assay [3] it was 19.2 µM.

One may read the IC50 as the concentration at which inhibition is half-maximal. Low values mean inhibition by little substance, high ones a need for much substance.
